Results on 6 compounds are retold here after patent publication US20170137458A1, “OXYSTEROLS FOR USE IN THE TREATMENT AND PREVENTION OF DISEASES CAUSED BY VIRUSES” (priority 2014, published 2017).

Where two headings read alike, the source gives them in different places.

As a reminder, the EC50 is the concentration at which the effect is half-maximal. The EC90 is the concentration needed for an effect of 90%.

One assay concerns human papillomavirus. In words: Antiviral assay with U18666A, papillomavirus, HeLa cells. Conditions: HeLa cells treated 20 hours. The format is cell-based. The method, then:
(§1) According to the hypothesis formulated previously, the oxysterols determine an accumulation of the intracellular cholesterol at endosomal level, inhibiting entry of the rotavirus. […] U18666A is an amphipathic steroid, widely used to block the intracellular transport of cholesterol, with consequent accumulation of the same at the level of the endosome membranes (31). In short, antiviral assays were performed treating the MA104 cells (for the rotavirus) or HeLa cells (for the papillomavirus) for 20 hours with scalar concentrations of U18666A (0.07 to 50 μM) and then infecting for one hour with the respective viruses. The effect of the treatment on the infectivity of the two viral models was evaluated as described previously. […] The experiment described therefore constitutes solid proof of the principle of the mechanism of action proposed.

Assay [1] has as its system human rotavirus. In words: Antiviral assay with U18666A, rotavirus, MA104 cells. In kind it is cell-based. Conditions: MA104 cells treated 20 hours, 0.07 to 50 μM. The method, then: as §1
A further assay deals with TLR4. Conditions: cited from earlier work.
Assay [2] has as its system human rotavirus (strain Wa). Briefly: Rotavirus yield reduction assay. In kind it is cell-based. The method, then: The cells were treated at 37° C. with 25-, 27-, 7α-, 7β-hydroxycholesterol or 7-ketocholesterol at 5.6 μM for 20 hours, then washed with medium and infected with the human rotavirus at an MOI of 0.02 (strain Wa) activated with trypsin. After one hour, the cells were washed and fresh medium was added supplemented with 0.5 μg/ml of porcine trypsin. […] The assay was performed in triplicate and the results were confirmed on Caco2 cells. In an alternative protocol, the MA104 cells were treated with oxysterols—at the concentration indicated above—after the viral inoculum. The one-way variance analysis (ANOVA), followed by the Bonferroni test, was used to evaluate the statistical significance of the virus titre differences between the treated and non-treated samples. The significance was fixed at 95%.
The results of the pre-treatment assays are illustrated in FIGS. 5 (MA104 cells) and 6 (Caco2 cells).

The test system of the next assay is PsV of HPV-16. Briefly: microbe, parasite or virus in culture. The format is cell-based, human papillomavirus.
The subject of assay [3] is human rhinovirus 1A. In words: Infectivity assay with rhinovirus (plaque count, HeLa cells).
Procedure: The human rhinovirus 1A (ATCC® VR-1559) was acquired from ATCC. The virus was propagated in HeLa cells, at 33° C. with 5% of CO2. When the cytopathic effect (CPE) had fully developed, cells and supernatants were collected, frozen and thawed three times, clarified and divided into aliquots. The viruses were kept at −70° C. The rhinovirus titres were determined by means of the standard plaque assay. In short, the HeLa cells were seeded 2 days prior to the infection in plates with 96 wells, reaching 60%-70% confluence at the time of the infection. The viral suspension was serially diluted in DMEM supplemented with 2% fetal bovine serum and inoculated; the infected wells were incubated at 33° C. for 1 hour, allowing the viruses to adhere and enter the cells. The cells were subsequently washed with medium and covered with a 1:1 mixture of 1.6% SeaPlaque agarose (BioWhittaker Molecular Applications) and DMEM 2X [26.76 g DMEM (Gibco BRL), 20 ml of L-glutamine (Gibco BRL), 4.4 g of sodium bicarbonate (Sigma, St. Louis, Mo.), FBS 40 ml (Sigma, St. Louis, Mo.) and 1000 ml of water]. The plates were incubated at 33° C. for 3 days. At the end of the incubation, the plates were fixed with 7.5% formaldehyde (Fluka) and coloured with crystal violet (Sigma, St. Louis, Mo.). The number of plaques formed was then counted; the virus titres were expressed in terms of plaque-forming units per ml (PFU/ml).
The HeLa cells, kept in DMEM supplemented with 10% FBS and 1% Zell Shield, were seeded (at 8×10^4 cells/well) in plates with 24 wells. The medium was removed and the cells were infected with 200 microlitres/well containing approximately 30 PFU of a stock of human rhinovirus 1A. The infected cells were incubated at 33° C. for 1 h, allowing the virus to adhere and enter the cells. […] The plates were incubated at 33° C. for 5 days. After the incubation, the plates were fixed with formaldehyde at 7.5% (Fluka), coloured with crystal violet (Sigma, St. Louis, Mo.) and the number of plaques formed was counted. The oxysterol concentration values able to determine 50% or 90% of the antiviral effect (EC50 and EC90 respectively) were calculated by means of regression analysis using the dose-response curves generated by the experimental data, using PRISM 5.00 (GraphPad Software, San Diego, Calif., USA).
The subject of assay [4] is human rotavirus Wa. Briefly: Infectivity assay for rotavirus, MA104 cells, strain Wa.
Procedure: (§2) The strains of human rotavirus Wa (ATCC® VR-2018), WI61 (ATCC® VR-2551), HRV 408 (ATCC® VR-2273), HRV 248 (ATCC® VR-2274) and DS-1 (ATCC® VR-2550) were acquired from the American Tissue Culture Collection (ATCC); the viruses were activated with 5 μg/ml porcine pancreatic trypsin of type IX (Sigma, St. Louis, Mo.) for 30 minutes at 37° C. and propagated in MA104 cells using MEM containing 0.5 μg of trypsin per ml as described previously (27).
(§3) The antiviral effectiveness of the oxysterols of the invention was determined by means of infectivity inhibition assay. The assays were performed with confluent monolayers of MA104 cells seeded in plates with 96 wells, as described previously (28). […] The control samples were prepared by treating the cells with culture medium with the addition of equal volumes of ethanol. The cells were then washed with medium, and the rotavirus infection was performed at a multiplicity of infection (MOI) of 0.02. After the infection, the cells were washed with medium and incubated at 37° C. in an incubator humidified at 5% (vol/vol) CO2-95% (vol/vol) of air. After 16 hours, the infected cells were fixed with a cold acetone-methanol mixture (50:50), and the virus titres were determined by means of indirect immunocytochemistry. The inhibition of the virus infectivity was expressed as a percentage comparing the mean number of infective events in the treated and non-treated samples±the standard deviations. Where possible, the values of the oxysterol concentrations able to determine 50% or 90% of the antiviral effect (EC50 and EC90 respectively) were calculated by means of regression analysis using the dose-response curves generated by the experimental data, with the use of PRISM 5.00 (GraphPad Software, San Diego, Calif., USA).
The test system of another assay is LXR. The note with it: cited from earlier work.
A further assay deals with rotavirus. In words: Rotavirus cell entry kinetics. In kind it is cell-based. Conditions: MA104 cells; for entry of the rotavirus into the cells (infective events): 1.9 μM for 20 hours, MOI 0.02. The method, then:
To measure the entry speed of the rotavirus into the cells, confluent monolayers of MA104 cells (cultivated in plates with 96 wells) were treated with 25OHC, 27OHC or 7κC at 1.9 μM at 37° C.; after 20 hours, the cells were washed extensively with cold medium and left to cool on ice. […] The non-bound viruses were then eliminated by washing, medium was added at 37° C., and the plates were incubated at 37° C. in a humidified atmosphere. At fixed times (i.e. 0, 15, 30, 45, 60, 75 and 90 minutes after the virus-cell adhesion), the medium was extracted from the wells and the viral particles still present on the surface of the cells were eliminated by means of two rapid washing operations with EGTA 3 mM in PBS, followed by incubation in warm medium. After reaching the last time point (90 minutes from the virus-cell adhesion), the plates with 96 wells were placed in an incubator (37° C., 5% CO2), and the infection was left to proceed for a further 16 hours. The cells were then fixed and coloured as described above. The quantity of viral particles that entered the cells at each time point was compared with the quantity of virus that entered when no washing with EGTA was performed (100% entry). The ANOVA, followed by the Bonferroni test, was used to evaluate the statistical significance of the differences between the treated and non-treated samples. The significance was fixed at the level of 95%.
As a control experiment, the same treatment and infection protocol was performed on MA104 cells, cultivated in a plate with 6 wells. In this experiment, after reaching the last time point of the entry measurement (90 minutes), the cells were lysed, the proteins extracted were denatured by boiling for 5 minutes, then separated by electrophoresis on sodium dodecylsulfate gel with 12% polyacrylamide (SDS-12%PAGE) and transferred to a polyvinylidene difluoride (PVDF) membrane. The protein of the intermediate capsid VP6 was detected using the murine monoclonal antibody 2B4 (mab0036-P, CovalAb) at a dilution 1:750, followed by secondary antibody IgG-HRP (Santa Cruz Biotechnology Inc.). The actin was detected using the anti-actin murine monoclonal antibody MAB1501R (Millipore), followed by antibody IgG-HRP (Santa Cruz Biotechnology Inc.). The density of the bands was compared using the ImageJ software, and the intensity of the actin bands was used to normalize the values. The ANOVA, followed by the Bonferroni test, was used to evaluate the statistical significance of the differences between the treated and the non-treated samples. The significance was fixed at the level of 95%. The results are reported in FIG. 11 and are expressed as a percentage, comparing treated cells with cells incubated with culture medium.

The next assay relates to human rotavirus HRV 248. Briefly: Infectivity assay for rotavirus, MA104 cells, strain HRV 248.
In the next assay the test system is HPV PsV (protein L1). Briefly: Assay for adhesion of the papillomavirus to the cell surface: Western blot analysis. The format is cell-based, human papillomavirus. The note with it: Hela cells treated 16 hours, PsV 4 hours at 4° C. From the text: L1 was detected using the murine monoclonal antibody (Ab30908, Abcam, Cambridge, UK) at a dilution of 1:2000, followed by secondary antibody IgG-HRP (Santa Cruz Biotechnology Inc.). The actin was detected using an anti-actin murine monoclonal antibody (MAB1501R, Millipore), followed by secondary antibody IgG-HRP (Santa Cruz Biotechnology Inc.).
(A western blot detects proteins with antibodies after separation by electrophoresis.)

A further assay has as its system human rotavirus DS-1. Briefly: Infectivity assay for rotavirus, MA104 cells, strain DS-1.
The subject of the next assay is human rotavirus HRV 408. In words: Infectivity assay for rotavirus, MA104 cells, strain HRV 408.
Assay [5] deals with human rotavirus Wa. Briefly: Infectivity assay for rotavirus repeated on Caco2 cells, strain Wa. The format is cell-based. Conditions: Caco-2. The text has this:
The results of the antiviral assays performed treating with 25OHC and 27OHC were confirmed repeating the infectivity assays on Caco2 cells.

The next assay relates to TLR3. Briefly: Quantitative real time RT-PCR of TLR-3 in Caco2 cells. The format is cell-based, human. Conditions: CaCo2 intestinal cells, 1.9 μM, 30 minutes to 6 hours. The method, then: The Caco2 cells were cultivated in DMEM medium containing 10% serum and seeded in 25 cm^2 flasks (8 million confluence cells). The next day the cells were treated, in DMEM medium containing 2% serum, with 1.9 μM 25OHC or 27OHC (dissolved in ethanol) for 30 minutes, 1, 2, 3, 4, 5 or 6 hours. Extraction of the total RNA was performed using the TRIzol Reagent (Applied Biosystems, Monza, Italy) and the quantity and purity (A260/A280 ratio) of the extracted RNA were spectrophotometrically measured. Subsequently, 2 μg of RNA were retrotranscribed using the High-Capacity cDNA Reverse Transcription Kit (Applied Biosystems). Quantitative RT-PCR was performed with 30 ng of cDNA using the “TaqMan Gene Expression Assay kits” for TLR-3 and β-actin, TaqMan Fast Universal PCR Master Mix, and 7500 Fast Real-Time PCR System (Applied Biosystems). For each gene considered, the threshold cycle (Ct) was determined and the results were normalized using β-actin as a reference gene. The relative quantification was performed using a mathematical method previously published (29). In FIGS. 1a-1b, the results are reported as increment of the genic expression (Fold change, Fc) of the treated samples with respect to the controls.
Background: Quantitative PCR measures a nucleic acid by following its amplification.

Assay [6] concerns human rhinovirus 1A. In words: Rhinovirus yield reduction assay. The note with it: HeLa cells, 5.6 μM after infection, collected 5 days after the infection.
Procedure: Each well was inoculated with 200 μl of a stock of human rhinovirus 1A containing approximately 30 PFU per well and incubated for 1 hour. […] The infected cells and the supernatants were collected 5 days after the infection (when a complete CPE was visible), and titred by means of the standard plaque method, as described above.
For assay [7], the system named is human rotavirus. In words: Target identification by siRNA sensitization (TISS), human rotavirus, Caco2 cells. The note with it: oxysterol at its EC50.
Procedure: This mechanism of action vis-à-vis the rotavirus was therefore investigated, performing a target identification assay by means of sensitization with short interfering RNA (siRNA). The Caco2 cells (for the experiments with human rotavirus) or the HeLa cells (for the experiments with human papillomavirus) were seeded in a plate with 24 wells; during seeding, the cells were transfected with siRNA specific for OSBP and VAPA (at a concentration of 20 nM). […] After one day, the medium was removed and the cells inoculated with the respective viruses in the same time, temperature and MOI conditions described in the protocols of the infectivity or neutralization assays. The number of infected cells was evaluated as described in the preceding paragraphs.
A further assay has as its system human rotavirus WI61. Briefly: Infectivity assay for rotavirus, MA104 cells, strain WI61.
Where [8] appears, read: MA104 cells, post-infection treatment 5.6 μM.
[9] abbreviates: MA104 cells, pre-treatment 5.6 μM for 20 hours, collected 48 hours after infection.
[10] abbreviates: pre-treatment assay, 20 hours prior to the infection.
The mark [11] stands for this setting: Caco2 cells, pre-treatment 5.6 μM for 20 hours, collected 48 hours after infection.

Procedure for human rotavirus DS-1: as §2, §3
Procedure for human rotavirus HRV 248: as §2, §3
Procedure for human rotavirus HRV 408: as §2, §3
Procedure for human rotavirus WI61: as §2, §3

In the case of `CCN(CC)CCO[C@H]1CC[C@@]2(C)C(=CC[C@@H]3[C@@H]2CC[C@]2(C)C(=O)CC[C@@H]32)C1` [U18666A], the EC50 with human papillomavirus worked out at 1740 nM. Also, the “inhibition of rotavirus infectivity” value with human rotavirus [1] is recorded as “antiviral activity is so high that calculation of the EC50 is not possible”.

As to `CC(C)CCC[C@@H](C)[C@H]1CC[C@H]2[C@@H]3[C@@H](O)C=C4C[C@@H](O)CC[C@]4(C)[C@H]3CC[C@]12C` [7βOHC, 7β-hydroxycholesterol], in the assay with TLR4 (SH-SY5Y neuroblastoma cells), the “induction of TLR4” value is “active in inducing TLR4”. Moreover, the results for the “production of virus progenies” value in [2] (setting [8]) and in assay [2] (setting [9]) were “antiviral activity” and “significant (P<0.05) antiviral activity”, respectively.

As for `CC(C)CCC[C@@H](C)[C@H]1CC[C@H]2[C@@H]3[C@H](O)C=C4C[C@@H](O)CC[C@]4(C)[C@H]3CC[C@]12C` [7αOHC, 7alpha-hydroxycholesterol], the “inhibition of the infectivity of HPV” value with PsV of HPV-16 was “not able to inhibit the infectivity of HPV”. Moreover, in assay [2] (setting [8]), the “production of virus progenies” value is listed as “antiviral activity”.

With `CC(C)C(O)CC[C@@H](C)[C@H]1CC[C@H]2[C@@H]3CC=C4C[C@@H](O)CC[C@]4(C)[C@H]3CC[C@]12C` (stereo partly shown) [24OHC, 24-hydroxycholesterol], the EC50 in the assay on PsV of HPV-16 (Human papillomavirus, HeLa) is 4380 nM; in the assay on human rhinovirus 1A [3] (setting [10]) it was 770 nM; in the assay with human rotavirus Wa [4], 390 nM. Besides, the figures for the EC90 in the assay with human rhinovirus 1A [3] (setting [10]) and in the assay with human rotavirus Wa [4] were 3100 nM and 1600 nM, respectively.

On to `CC(C)CCC[C@@H](C)[C@H]1CC[C@H]2[C@@H]3C(=O)C=C4C[C@@H](O)CC[C@]4(C)[C@H]3CC[C@]12C` [7κC, 7-ketocholesterol], for which the LXR ligand activity entry in the assay on LXR is listed as “no ligand activity”. The “production of virus progenies” value in assay [2] (setting [11]) was “significantly limit (p<0.05) the production of virus progenies”; in assay [2] (setting [8]) it was “antiviral activity”; in assay [2] (setting [9]), “significantly limit (p<0.05) the production of virus progenies”. Also, the “entry of the rotavirus into the cells (infective events)” value with rotavirus was “does not cause a significant reduction (p>0.05) in the number of infective events”.

Turning to `C[C@@H](CO)CCC[C@@H](C)[C@H]1CC[C@H]2[C@@H]3CC=C4C[C@@H](O)CC[C@]4(C)[C@H]3CC[C@]12C` [27OHC, 27-hydroxycholesterol], the EC50 turned out to be 6870 nM with PsV of HPV-16 (C33A cells, treated 16 hours before PsV, read-out: EC50); 9330 nM in the assay with PsV of HPV-16 (Human papillomavirus, HeLa); 28900 nM with PsV of HPV-16 (Human papillomavirus, SiHa); 230 nM in the assay on human rotavirus HRV 248; 720 nM with human rotavirus DS-1; 400 nM in the assay on human rotavirus HRV 408. Besides, the EC50 worked out at 480 nM in the assay with human rhinovirus 1A [3] (post-infection treatment assay); 620 nM with human rhinovirus 1A [3] (setting [10]); 440 nM in the assay with human rotavirus Wa [5]; 260 nM in the assay on human rotavirus Wa [4]; 190 nM with human rotavirus WI61. In the assay on LXR, the LXR ligand activity result is “optimal ligands of LXR”. The EC90 was 3840 nM in the assay with human rotavirus HRV 248; 5850 nM in the assay on human rotavirus DS-1; 4560 nM in the assay on human rotavirus HRV 408; 1270 nM in the assay on human rhinovirus 1A [3] (post-infection treatment assay); 2170 nM in the assay with human rhinovirus 1A [3] (setting [10]); 2500 nM in the assay with human rotavirus Wa [5]. Moreover, the EC90 is 1730 nM with human rotavirus Wa [4] and 740 nM in the assay on human rotavirus WI61. Besides, in the assay with HPV PsV (protein L1), the “adhesion of the PsV to the cell surface (L1 Western blot)” value is given as “not able to inhibit adhesion of the PsV to the cell surface”. In addition, the “induction of TLR4” value in the assay with TLR4 (SH-SY5Y neuroblastoma cells) and in the assay on TLR4 (macrophage cell lines) was “active in inducing TLR4” each time. In addition, the TLR3 expression result with TLR3 was “marked hyperexpression of TLR3”. Besides, in the assay on human rhinovirus 1A [6], the “production of viral progenies” value is listed as “totally inhibit the production of viral progenies”. For the same compound, the “antiviral activity in cells with OSBP silenced” value in the assay on human rotavirus [7] (OSBP siRNA 20 nM) was “higher”. For the same compound, the “antiviral activity in cells with VAP-A silenced” value in the assay with human rotavirus [7] (VAPA siRNA 20 nM) is listed as “higher”. The “production of virus progenies” value is “significantly limit (p<0.05) the production of virus progenies” in assay [2] (setting [11]), “confirm the in vitro effectiveness” in assay [2] (setting [8]) and “significantly limit (p<0.05) the production of virus progenies” in [2] (setting [9]). In addition, the “entry of the rotavirus into the cells (infective events)” value with rotavirus was “able to limit the entry of the viral particles into the cells, shows a lesser effectiveness”. In addition, in the assay with rotavirus (90 minutes after virus-cell adhesion), the “viral antigen VP6 within the cells (Western blot)” value is “significantly (p<0.05) lower quantity than the non-treated control”.
